This passage reports IC50 results from ChEMBL document CHEMBL1148542, “Synthesis of a novel biotin-tagged photoaffinity probe for VEGF receptor tyrosine kinases” (Bioorg Med Chem Lett, 2006).

The target of experiment [1] is Vascular endothelial growth factor receptor 2 (Homo sapiens, UniProt P35968). The experiment in a line: Inhibitory activity against VEGFR2 kinase.
In experiment [2] the target is Vascular endothelial growth factor receptor (Homo sapiens, UniProt P17948+P35916+P35968). Briefly: Inhibitory activity against VEGF-stimulated proliferation in HUVEC. It counts as functional.

Chain of Vascular endothelial growth factor receptor 2 (P35968 whole entry): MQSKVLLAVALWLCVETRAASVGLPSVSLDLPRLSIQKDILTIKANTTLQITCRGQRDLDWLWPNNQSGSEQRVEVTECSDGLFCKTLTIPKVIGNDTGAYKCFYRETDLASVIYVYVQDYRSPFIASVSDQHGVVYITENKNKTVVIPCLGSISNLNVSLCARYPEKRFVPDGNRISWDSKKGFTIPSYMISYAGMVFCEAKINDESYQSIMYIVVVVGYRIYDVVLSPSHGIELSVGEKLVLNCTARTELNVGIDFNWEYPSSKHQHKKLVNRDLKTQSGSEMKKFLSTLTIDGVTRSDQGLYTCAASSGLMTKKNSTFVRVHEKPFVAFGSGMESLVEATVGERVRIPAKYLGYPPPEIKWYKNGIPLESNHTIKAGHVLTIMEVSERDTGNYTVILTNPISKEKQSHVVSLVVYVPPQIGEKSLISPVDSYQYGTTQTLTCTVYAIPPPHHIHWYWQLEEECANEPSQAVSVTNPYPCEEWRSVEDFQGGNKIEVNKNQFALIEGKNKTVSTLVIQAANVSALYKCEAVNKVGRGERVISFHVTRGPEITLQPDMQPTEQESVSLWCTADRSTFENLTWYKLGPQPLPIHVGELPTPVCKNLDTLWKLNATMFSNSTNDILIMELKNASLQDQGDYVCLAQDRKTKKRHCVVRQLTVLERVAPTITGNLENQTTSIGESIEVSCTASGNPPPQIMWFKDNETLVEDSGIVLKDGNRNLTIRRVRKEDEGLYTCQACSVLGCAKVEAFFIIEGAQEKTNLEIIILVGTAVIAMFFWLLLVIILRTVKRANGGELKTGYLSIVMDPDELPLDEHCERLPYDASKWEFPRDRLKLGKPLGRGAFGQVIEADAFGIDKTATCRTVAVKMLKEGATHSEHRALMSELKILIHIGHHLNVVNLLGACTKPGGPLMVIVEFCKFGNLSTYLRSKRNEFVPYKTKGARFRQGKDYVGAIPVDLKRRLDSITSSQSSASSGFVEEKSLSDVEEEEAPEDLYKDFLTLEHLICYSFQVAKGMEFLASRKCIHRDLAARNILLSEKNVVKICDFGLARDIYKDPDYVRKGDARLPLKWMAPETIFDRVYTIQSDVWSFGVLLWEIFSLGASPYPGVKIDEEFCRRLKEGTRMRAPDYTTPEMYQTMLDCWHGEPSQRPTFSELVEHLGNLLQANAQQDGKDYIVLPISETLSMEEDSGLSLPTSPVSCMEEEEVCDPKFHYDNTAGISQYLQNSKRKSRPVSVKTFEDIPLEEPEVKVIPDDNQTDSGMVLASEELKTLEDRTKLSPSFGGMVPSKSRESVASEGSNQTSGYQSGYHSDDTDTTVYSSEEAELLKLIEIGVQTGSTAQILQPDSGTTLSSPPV

As for `COc1cc2c(Nc3ccc(Cl)cc3F)ncnc2cc1OCCNC(=O)c1c(F)c(F)c(N=[N+]=[N-])c(F)c1F`, the IC50 was under 1 µM in experiment [1] and 4.1 µM in experiment [2].

`COc1cc2ncnc(Nc3ccc(Cl)cc3F)c2cc1OC` came in with an IC50 in experiment [1] of 1.5 µM.

Regarding `COc1cc2c(Nc3ccc(Cl)cc3F)ncnc2cc1OCCOCCNC(=O)CCCCC1SCC2NC(=O)NC21` (stereo unspecified), the IC50 in experiment [1] amounted to 1.5 µM; in experiment [2] it was 1.9 µM.

As for `COc1cc2c(Nc3ccc(Cl)cc3F)ncnc2cc1OCCNC(=O)CCCCC1SCC2NC(=O)NC21` (stereo unspecified), the IC50 in experiment [1] was found to be 4.8 µM; in experiment [2], 14.7 µM.

As for `COc1cc2c(Nc3ccc(Cl)cc3F)ncnc2cc1OCCOCCNC(=O)c1c(F)c(F)c(N=[N+]=[N-])c(F)c1F`, the IC50 in experiment [1] was under 1 µM; in experiment [2], 3.2 µM.

As to `COc1cc2c(Nc3ccc(Cl)cc3F)ncnc2cc1OCCOCCNC(=O)C(CCCCNC(=O)CCCCC1SCC2NC(=O)NC21)NC(=O)c1c(F)c(F)c(N=[N+]=[N-])c(F)c1F` (stereo unspecified), the figures for the half-inhibitory concentration (IC50) in experiment [1] and in experiment [2] were 7.1 µM and 40.3 µM, respectively.

Usually IC50 stands for the point on the concentration scale where inhibition reaches its midpoint. The low end stands for inhibition by little substance, the high end for a need for much substance.
